{
  "source": "patent US8952128B2",
  "about": "“Somatostatin-dopamine chimeric analogs” (priority 2012, dated 2015)",
  "key": {"hSSTR2": {"biological_target": "hSSTR2 (Homo sapiens (Human), UniProt P30874)", "sequence (P30874 whole entry)": "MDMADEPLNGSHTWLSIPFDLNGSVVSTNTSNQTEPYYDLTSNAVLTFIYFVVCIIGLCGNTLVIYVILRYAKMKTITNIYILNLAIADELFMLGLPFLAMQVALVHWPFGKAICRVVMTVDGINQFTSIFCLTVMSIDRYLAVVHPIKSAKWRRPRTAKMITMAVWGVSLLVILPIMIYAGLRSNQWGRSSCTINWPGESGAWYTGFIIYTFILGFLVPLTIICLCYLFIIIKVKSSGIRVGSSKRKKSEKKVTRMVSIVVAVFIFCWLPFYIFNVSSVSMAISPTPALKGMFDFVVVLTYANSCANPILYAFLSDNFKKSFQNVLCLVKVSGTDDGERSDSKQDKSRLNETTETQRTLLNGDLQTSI", "test": "Intracellular calcium mobilization assay (FLIPR Calcium 4), hSSTR2;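 for all read-outs here: agonist activity read as intracellular calcium rise in cells expressing human SSTR2, loaded with a calcium-sensitive dye for 60 min at 37 °C, measured by FLIPR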", "assay_type": "cell-based", "conditions": "for Emax: read-out: hSSTR2 % Emax ± SEM; for improvement in EC50 over Reference Compound A: Student's t-test, one-tailed, p <0.05", "procedure": "(§1) The ability of select compounds according to the present invention to activate hSSTR2 and hDRD2 was determined by the intracellular calcium mobilization assay using FLIPR Calcium 4 assay kit (Molecular Devices).\n(§2) Cells expressing hSSTR2 or hDRD2 were plated in 384-well microplates in tissue culture media and incubated for 16-24 hours at 37° C. in a humidified atmosphere with 5% CO2. Medium was replaced by loading buffer containing Hank's buffered saline, 20 mM HEPES, 2.5 mM probenecid and Calcium 4 dye, and the plates were incubated at 37° C. for 60 minutes."}, "hDRD2": {"biological_target": "hDRD2 (Homo sapiens (Human), UniProt P14416)", "test": "cell-based", "procedure": "as §1, §2"}},
  "note": "Like-named read-outs stand apart in the source and are kept apart here. Numbered stars: 1 amine (or outer) side, 2 acyl side, 3 side chain; on linkers, the order of the positions; unused ones are H or OH. Bridge positions count the residues as written; N and C are the ends. Square brackets hold non-standard residues; d marks the D form. Peptide text beside a SMILES is read from it. * marks the point of attachment. X1 = CN1C[C@H](CSCCN(CCSC[C@@H]2C[C@@H]3c4cccc5[nH]cc(c45)C[C@H]3N(C)C2)[C@H](CCCCN[*:2])C(=O)[*:1])C[C@@H]2c3cccc4[nH]cc(c34)C[C@H]21; X2 = CN1C[C@H](CSCC(=O)*)C[C@@H]2c3cccc4[nH]cc(c34)C[C@H]21; 4Pal = N[C@@H](Cc1ccncc1)C(=O)O",
  "data": [
    {"smiles": "C[C@@H](O)[C@@H]1NC(=O)[C@H](CCCCN)NC(=O)[C@@H](Cc2c[nH]c3ccccc23)NC(=O)[C@H](Cc2ccncc2)NC(=O)[C@H](Cc2ccccc2)NC(=O)[C@H](CCCNC(=N)N)NC(=O)[C@H](NC[C@H](CCCCNC(=O)CSC[C@@H]2C[C@@H]3c4cccc5[nH]cc(c45)C[C@H]3N(C)C2)NC(=O)CSC[C@@H]2C[C@@H]3c4cccc5[nH]cc(c45)C[C@H]3N(C)C2)CCCCNC(=O)[C@H](Cc2ccc(O)cc2)NC1=O", "note": "[Compound 8, Dop1-Lys(Dop1)-psi(CH2NH)-cyclo(DLys-Arg-Phe-4Pal-DTrp-Lys-Thr-Tyr)]", "values": [
      {"measurement": "EC50", "setting": "hSSTR2", "result": "29.8 ± 10.5", "unit": "nM"},
      {"measurement": "improvement in % Emax over Reference Compound C", "setting": "hSSTR2; calcium mobilization", "result": "statistically significant improvement"},
      {"measurement": "Emax", "setting": "hSSTR2", "result": "98.8 ± 2.6", "unit": "%"},
      {"measurement": "EC50", "setting": "hDRD2", "result": "18 ± 4.1", "unit": "nM"}
    ]},
    {"smiles": "C[C@@H](O)[C@@H]1NC(=O)[C@H](CCCCN)NC(=O)[C@@H](Cc2c[nH]c3ccccc23)NC(=O)[C@H](Cc2ccccc2)NC(=O)[C@H](Cc2ccccc2)NC(=O)[C@H](CCCNC(=N)N)NC(=O)[C@H](NCCCCC[C@@H]2C[C@@H]3c4cccc5[nH]cc(c45)C[C@H]3N(C)C2)CCCCNC(=O)[C@H](Cc2ccc(F)cc2)NC1=O", "note": "[Compound 3, (D-6-methyl-8β-ergolinyl)-pentanoyl-psi(CH2NH)-cyclo(DLys-Arg-Phe-Phe-DTrp-Lys-Thr-4FPhe)]", "values": [
      {"measurement": "Emax", "setting": "hSSTR2", "result": "98.8 ± 19.2", "unit": "%"}
    ]},
    {"smiles": "C[C@@H](O)[C@@H]1NC(=O)[C@H](CCCCN)NC(=O)[C@@H](Cc2c[nH]c3ccccc23)NC(=O)[C@H](Cc2ccccc2)NC(=O)[C@H](Cc2ccccc2)NC(=O)[C@H](CCCNC(=N)N)NC(=O)[C@H](NCCSC[C@@H]2C[C@@H]3c4cccc5[nH]cc(c45)C[C@H]3N(C)C2)CCCCNC(=O)[C@H](Cc2c(F)c(F)c(F)c(F)c2F)NC1=O", "note": "[Compound 6E, Dop1-psi(CH2NH)-cyclo(DLys-Arg-Phe-Phe-DTrp-Lys-Thr-2,3,4,5,6FPhe)]", "values": [
      {"measurement": "Emax", "setting": "hSSTR2", "result": "90.4 ± 6.8", "unit": "%"}
    ]},
    {"smiles": "C[C@@H](O)[C@@H]1NC(=O)[C@H](CCCCN)NC(=O)[C@@H](Cc2c[nH]c3ccccc23)NC(=O)[C@H](Cc2ccncc2)NC(=O)[C@H](Cc2ccccc2)NC(=O)[C@H](CCCNC(=N)N)NC(=O)[C@H](N(CCSC[C@@H]2C[C@@H]3c4cccc5[nH]cc(c45)C[C@H]3N(C)C2)CCSC[C@@H]2C[C@@H]3c4cccc5[nH]cc(c45)C[C@H]3N(C)C2)CCCCNC(=O)[C@H](Cc2ccccc2)NC1=O", "note": "[Compound 29, bis[Dop1-psi(CH2N)]-cyclo(DLys-Arg-Phe-4Pal-DTrp-Lys-Thr-Phe)] (RF[4Pal][dW]KTF; linker N-C via X1)", "values": [
      {"measurement": "improvement in EC50 over Reference Compound A", "setting": "hSSTR2", "result": "statistically significant improvement"},
      {"measurement": "Emax", "setting": "hSSTR2", "result": "97 ± 4.9", "unit": "%"}
    ]},
    {"smiles": "C[C@@H](O)[C@@H]1NC(=O)[C@H](CCCCN)NC(=O)[C@@H](Cc2c[nH]c3ccccc23)NC(=O)[C@H](Cc2ccncc2)NC(=O)[C@H](Cc2ccccc2)NC(=O)[C@H](CCCNC(=N)N)NC(=O)[C@H](NC(=O)CSC[C@@H]2C[C@@H]3c4cccc5[nH]cc(c45)C[C@H]3N(C)C2)CCCCNC(=O)[C@H](Cc2ccc(O)cc2)NC1=O", "note": "[Compound 25, Dop1-cyclo(DLys-Arg-Phe-4Pal-DTrp-Lys-Thr-Tyr)] (X2-[dK]RF[4Pal][dW]KTY; lactam 1-C)", "values": [
      {"measurement": "improvement in EC50 over Reference Compound A", "setting": "hSSTR2", "result": "statistically significant improvement"},
      {"measurement": "Emax", "setting": "hSSTR2", "result": "93.9 ± 6.7", "unit": "%"}
    ]},
    {"smiles": "C[C@@H](O)[C@@H]1NC(=O)[C@H](CCCCN)NC(=O)[C@@H](Cc2c[nH]c3ccccc23)NC(=O)[C@H](Cc2ccccc2)NC(=O)[C@H](Cc2ccccc2)NC(=O)[C@H](CCCNC(=N)N)NC(=O)[C@H](NCCCC[C@@H]2C[C@@H]3c4cccc5[nH]cc(c45)C[C@H]3N(C)C2)CCCCNC(=O)[C@H](Cc2ccc(F)cc2)NC1=O", "note": "[Compound 2, (D-6-methyl-8β-ergolinyl)-butanoyl-psi(CH2NH)-cyclo(DLys-Arg-Phe-Phe-DTrp-Lys-Thr-4FPhe)]", "values": [
      {"measurement": "Emax", "setting": "hSSTR2", "result": "100 ± 1.7", "unit": "%"}
    ]},
    {"smiles": "C[C@@H](O)[C@@H]1NC(=O)[C@H](CCCCN)NC(=O)[C@@H](Cc2c[nH]c3ccccc23)NC(=O)[C@H](Cc2ccccc2)NC(=O)[C@H](Cc2ccccc2)NC(=O)[C@H](CCCNC(=N)N)NC(=O)[C@@H](NC[C@H](Cc2ccc(O)cc2)NC(=O)CSC[C@@H]2C[C@@H]3c4cccc5[nH]cc(c45)C[C@H]3N(C)C2)CCCCNC(=O)[C@H](Cc2ccccc2)NC1=O", "note": "[Compound 31, Dop1-Tyr-psi(CH2NH)-cyclo(Lys-Arg-Phe-Phe-DTrp-Lys-Thr-Phe)]", "values": [
      {"measurement": "Emax", "setting": "hSSTR2", "result": "85.1 ± 4.7", "unit": "%"}
    ]},
    {"smiles": "C[C@@H](O)[C@@H]1NC(=O)[C@H](CCCCN)NC(=O)[C@@H](Cc2c[nH]c3ccccc23)NC(=O)[C@H](Cc2ccccc2)NC(=O)[C@H](Cc2ccccc2)NC(=O)[C@H](CCCNC(=N)N)NC(=O)[C@H](NCCSC[C@@H]2C[C@@H]3c4cccc5[nH]cc(c45)C[C@H]3N(C)C2)CCCCNC(=O)[C@H](Cc2ccccc2F)NC1=O", "note": "[Compound 6D, Dop1-psi(CH2NH)-cyclo(DLys-Arg-Phe-Phe-DTrp-Lys-Thr-2FPhe)]", "values": [
      {"measurement": "Emax", "setting": "hSSTR2", "result": "96.9 ± 8.7", "unit": "%"}
    ]},
    {"smiles": "C[C@@H](O)[C@@H]1NC(=O)[C@H](CCCCN)NC(=O)[C@@H](Cc2c[nH]c3ccccc23)NC(=O)[C@H](Cc2ccccc2)NC(=O)[C@H](Cc2ccccc2)NC(=O)[C@H](CCCNC(=N)N)NC(=O)[C@H](NCCSC[C@@H]2C[C@@H]3c4cccc5[nH]cc(c45)C[C@H]3N(C)C2)CCCCNC(=O)[C@H](Cc2cccc(F)c2)NC1=O", "note": "[Compound 6C, Dop1-psi(CH2NH)-cyclo(DLys-Arg-Phe-Phe-DTrp-Lys-Thr-3FPhe)]", "values": [
      {"measurement": "Emax", "setting": "hSSTR2", "result": "97.7 ± 6.9", "unit": "%"}
    ]},
    {"smiles": "C[C@@H](O)[C@@H]1NC(=O)[C@H](CCCCN)NC(=O)[C@@H](Cc2c[nH]c3ccccc23)NC(=O)[C@H](Cc2ccncc2)NC(=O)[C@H](Cc2ccccc2)NC(=O)[C@H](CCCNC(=N)N)NC(=O)[C@H](N(CCSC[C@@H]2C[C@@H]3c4cccc5[nH]cc(c45)C[C@H]3N(C)C2)CCSC[C@@H]2C[C@@H]3c4cccc5[nH]cc(c45)C[C@H]3N(C)C2)CCCCNC(=O)[C@H](Cc2ccc(O)cc2)NC1=O", "note": "[Compound 35, bis[Dop1-psi(CH2N)]-cyclo(DLys-Arg-Phe-4Pal-DTrp-Lys-Thr-Tyr)] (RF[4Pal][dW]KTY; linker N-C via X1)", "values": [
      {"measurement": "Emax", "setting": "hSSTR2; maximal effect in percentage of the maximal effect of SRIF-14", "result": "91.2 ± 11", "unit": "%"}
    ]},
    {"smiles": "C[C@@H](O)[C@@H]1NC(=O)[C@H](CCCCN)NC(=O)[C@@H](Cc2c[nH]c3ccccc23)NC(=O)[C@H](Cc2ccncc2)NC(=O)[C@H](Cc2ccccc2)NC(=O)[C@H](CCCNC(=N)N)NC(=O)[C@H](NC[C@H](CCCCNC(=O)C[S+]([O-])C[C@@H]2C[C@@H]3c4cccc5[nH]cc(c45)C[C@H]3N(C)C2)NC(=O)C[S+]([O-])C[C@@H]2C[C@@H]3c4cccc5[nH]cc(c45)C[C@H]3N(C)C2)CCCCNC(=O)[C@H](Cc2ccccc2)NC1=O", "note": "(stereo partly drawn) [Compound 17, Dop1(SO)-Lys[Dop1(SO)]-psi(CH2NH)-cyclo(DLys-Arg-Phe-4Pal-DTrp-Lys-Thr-Phe)]", "values": [
      {"measurement": "Emax", "setting": "hSSTR2", "result": "105 ± 4.2", "unit": "%"}
    ]},
    {"smiles": "C[C@@H](O)[C@@H]1NC(=O)[C@H](CCCCN)NC(=O)[C@@H](Cc2c[nH]c3ccccc23)NC(=O)[C@H](Cc2ccccc2)NC(=O)[C@H](Cc2ccccc2)NC(=O)[C@H](CCCNC(=N)N)NC(=O)[C@H](NC[C@H](Cc2ccc(O)cc2)NC(=O)CSC[C@@H]2C[C@@H]3c4cccc5[nH]cc(c45)C[C@H]3N(C)C2)CCCCNC(=O)[C@H](Cc2ccccc2)NC1=O", "note": "[Compound 32, Dop1-Tyr-psi(CH2NH)-cyclo(DLys-Arg-Phe-Phe-DTrp-Lys-Thr-Phe)]", "values": [
      {"measurement": "improvement in EC50 and/or % Emax over Reference Compound B", "setting": "hSSTR2; calcium mobilization", "result": "statistically significant improvement"},
      {"measurement": "Emax", "setting": "hSSTR2", "result": "87.5 ± 4.3", "unit": "%"}
    ]}
  ]
}
